Measurements: PubChem BioAssay (NCI)
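Tested at 5 concentrations; 48 h exposure; 96-well plates; endpoints linearly interpolated, else capped at highest concentration. GI50 = concentration required for 50% inhibition of growth. TGI marks complete inhibition of growth.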

Tests used:
Experiment in all cases: NCI tumour cell line growth inhibition, 48 h
MCF7 breast = tested on: MCF7 breast
SK-MEL-5 melanoma = tested on: SK-MEL-5 melanoma
SNB-19 CNS = tested on: SNB-19 CNS
OVCAR-5 ovarian = tested on: OVCAR-5 ovarian
NCI/ADR-RES ovarian = tested on: NCI/ADR-RES ovarian
HCT-15 colon = tested on: HCT-15 colon
OVCAR-4 ovarian = tested on: OVCAR-4 ovarian
LOX IMVI melanoma = tested on: LOX IMVI melanoma
U251 CNS = tested on: U251 CNS
A549 NSCLC = tested on: A549 NSCLC
NCI-H460 lung = tested on: NCI-H460 lung
PC-3 prostate = tested on: PC-3 prostate
UACC-62 melanoma = tested on: UACC-62 melanoma
CCRF-CEM leukemia = tested on: CCRF-CEM leukemia
UACC-257 melanoma = tested on: UACC-257 melanoma
HOP-62 NSCLC = tested on: HOP-62 NSCLC
NCI-H23 lung = tested on: NCI-H23 lung
SN12C renal = tested on: SN12C renal
HL-60(TB) leukemia = tested on: HL-60(TB) leukemia
A498 renal = tested on: A498 renal
OVCAR-8 ovarian = tested on: OVCAR-8 ovarian
SK-OV-3 ovarian = tested on: SK-OV-3 ovarian
HCC-2998 colon = tested on: HCC-2998 colon
MDA-MB-231 breast = tested on: MDA-MB-231 breast
RXF 393 renal = tested on: RXF 393 renal
MOLT-4 leukemia = tested on: MOLT-4 leukemia
HT29 colon = tested on: HT29 colon
RPMI-8226 leukemia = tested on: RPMI-8226 leukemia
BT-549 breast = tested on: BT-549 breast
M14 melanoma = tested on: M14 melanoma
IGROV1 ovarian = tested on: IGROV1 ovarian
NCI-H522 lung = tested on: NCI-H522 lung
SF-539 CNS = tested on: SF-539 CNS
KM12 colon = tested on: KM12 colon
TK-10 renal = tested on: TK-10 renal
HS 578T breast = tested on: HS 578T breast
SK-MEL-2 melanoma = tested on: SK-MEL-2 melanoma
786-0 renal = tested on: 786-0 renal
SW-620 colon = tested on: SW-620 colon
SF-268 CNS = tested on: SF-268 CNS
MALME-3M melanoma = tested on: MALME-3M melanoma
SF-295 CNS = tested on: SF-295 CNS
SK-MEL-28 melanoma = tested on: SK-MEL-28 melanoma
CAKI-1 renal = tested on: CAKI-1 renal
SNB-75 CNS = tested on: SNB-75 CNS
K-562 leukemia = tested on: K-562 leukemia
T-47D breast = tested on: T-47D breast
HOP-92 NSCLC = tested on: HOP-92 NSCLC
DU-145 prostate = tested on: DU-145 prostate
ACHN renal = tested on: ACHN renal
MDA-MB-435 = tested on: MDA-MB-435
NCI-H226 lung = tested on: NCI-H226 lung
OVCAR-3 ovarian = tested on: OVCAR-3 ovarian
UO-31 renal = tested on: UO-31 renal
EKVX NSCLC = tested on: EKVX NSCLC
COLO 205 colon = tested on: COLO 205 colon

In the case of `Clc1nc(Cl)c2ncn(C/C=C\COc3cccc(OC/C=C\Cn4cnc5c(Cl)nc(Cl)nc54)c3)c2n1`, the GI50 (MCF7 breast) is reported as > 100 µM, the TGI (MCF7 breast) is reported as > 100 µM and the GI50 (SK-MEL-5 melanoma) is reported as > 100 µM. The TGI (SK-MEL-5 melanoma) was > 100 µM, the GI50 (SNB-19 CNS) was > 100 µM and the TGI (SNB-19 CNS) was > 100 µM. The GI50 (OVCAR-5 ovarian) was > 100 µM, the TGI (OVCAR-5 ovarian) was > 100 µM and the GI50 (NCI/ADR-RES ovarian) was > 100 µM. The TGI (NCI/ADR-RES ovarian) was > 100 µM, the GI50 (HCT-15 colon) was > 100 µM and the TGI (HCT-15 colon) was > 100 µM. The GI50 (OVCAR-4 ovarian) was > 100 µM, the TGI (OVCAR-4 ovarian) was > 100 µM and the GI50 (LOX IMVI melanoma) was 19.3 µM. The TGI (LOX IMVI melanoma) was 43.8 µM, the GI50 (U251 CNS) was > 100 µM and the TGI (U251 CNS) was > 100 µM. The GI50 (A549 NSCLC) was > 100 µM, the TGI (A549 NSCLC) was > 100 µM and the GI50 (NCI-H460 lung) was > 100 µM. For the same molecule, the TGI (NCI-H460 lung) was > 100 µM, the GI50 (PC-3 prostate) was > 100 µM and the TGI (PC-3 prostate) was > 100 µM. For the same molecule, the GI50 (UACC-62 melanoma) was > 100 µM, the TGI (UACC-62 melanoma) was > 100 µM and the GI50 (CCRF-CEM leukemia) was 95.8 µM. The TGI (CCRF-CEM leukemia) was > 100 µM, the GI50 (UACC-257 melanoma) was > 100 µM and the TGI (UACC-257 melanoma) was > 100 µM. The GI50 (HOP-62 NSCLC) was > 100 µM, the TGI (HOP-62 NSCLC) was > 100 µM and the GI50 (NCI-H23 lung) was > 100 µM. The TGI (NCI-H23 lung) was > 100 µM, the GI50 (SN12C renal) was > 100 µM and the TGI (SN12C renal) was > 100 µM. The GI50 (HL-60(TB) leukemia) was > 100 µM, the TGI (HL-60(TB) leukemia) was > 100 µM and the GI50 (A498 renal) was > 100 µM. For the same molecule, the TGI (A498 renal) was > 100 µM, the GI50 (OVCAR-8 ovarian) was > 100 µM and the TGI (OVCAR-8 ovarian) was > 100 µM. The GI50 (SK-OV-3 ovarian) was > 100 µM, the TGI (SK-OV-3 ovarian) was > 100 µM and the GI50 (HCC-2998 colon) was > 100 µM. The TGI (HCC-2998 colon) was > 100 µM, the GI50 (MDA-MB-231 breast) was > 100 µM and the TGI (MDA-MB-231 breast) was > 100 µM. The GI50 (RXF 393 renal) was 48.8 µM, the TGI (RXF 393 renal) was > 100 µM and the GI50 (MOLT-4 leukemia) was > 100 µM. The TGI (MOLT-4 leukemia) was > 100 µM, the GI50 (HT29 colon) was > 100 µM and the TGI (HT29 colon) was > 100 µM. For the same molecule, the GI50 (RPMI-8226 leukemia) was > 100 µM, the TGI (RPMI-8226 leukemia) was > 100 µM and the GI50 (BT-549 breast) was > 100 µM. For the same molecule, the TGI (BT-549 breast) was > 100 µM, the GI50 (M14 melanoma) was > 100 µM and the TGI (M14 melanoma) was > 100 µM. For the same molecule, the GI50 (IGROV1 ovarian) was > 100 µM, the TGI (IGROV1 ovarian) was > 100 µM and the GI50 (NCI-H522 lung) was > 100 µM. For the same molecule, the TGI (NCI-H522 lung) was > 100 µM, the GI50 (SF-539 CNS) was > 100 µM and the TGI (SF-539 CNS) was > 100 µM. For the same molecule, the GI50 (KM12 colon) was > 100 µM, the TGI (KM12 colon) was > 100 µM and the GI50 (TK-10 renal) was > 100 µM. For the same molecule, the TGI (TK-10 renal) was > 100 µM, the GI50 (HS 578T breast) was > 100 µM and the TGI (HS 578T breast) was > 100 µM. The GI50 (SK-MEL-2 melanoma) was > 100 µM, the TGI (SK-MEL-2 melanoma) was > 100 µM and the GI50 (786-0 renal) was > 100 µM. For the same molecule, the TGI (786-0 renal) was > 100 µM, the GI50 (SW-620 colon) was > 100 µM and the TGI (SW-620 colon) was > 100 µM. For the same molecule, the GI50 (SF-268 CNS) was > 100 µM, the TGI (SF-268 CNS) was > 100 µM and the GI50 (MALME-3M melanoma) was > 100 µM. The TGI (MALME-3M melanoma) was > 100 µM, the GI50 (SF-295 CNS) was > 100 µM and the TGI (SF-295 CNS) was > 100 µM. For the same molecule, the GI50 (SK-MEL-28 melanoma) was > 100 µM, the TGI (SK-MEL-28 melanoma) was > 100 µM and the GI50 (CAKI-1 renal) was > 100 µM. For the same molecule, the TGI (CAKI-1 renal) was > 100 µM, the GI50 (SNB-75 CNS) was > 100 µM and the TGI (SNB-75 CNS) was > 100 µM. For the same molecule, the GI50 (K-562 leukemia) was 53.8 µM, the TGI (K-562 leukemia) was > 100 µM and the GI50 (T-47D breast) was 88.1 µM. For the same molecule, the TGI (T-47D breast) was > 100 µM, the GI50 (HOP-92 NSCLC) was > 100 µM and the TGI (HOP-92 NSCLC) was > 100 µM. The GI50 (DU-145 prostate) was > 100 µM, the TGI (DU-145 prostate) was > 100 µM and the GI50 (ACHN renal) was > 100 µM. The TGI (ACHN renal) was > 100 µM, the GI50 (MDA-MB-435) was > 100 µM and the TGI (MDA-MB-435) was > 100 µM. The GI50 (NCI-H226 lung) was 43.3 µM, the TGI (NCI-H226 lung) was > 100 µM and the GI50 (OVCAR-3 ovarian) was > 100 µM. For the same molecule, the TGI (OVCAR-3 ovarian) was > 100 µM, the GI50 (UO-31 renal) was > 100 µM and the TGI (UO-31 renal) was > 100 µM. The GI50 (EKVX NSCLC) was > 100 µM, the TGI (EKVX NSCLC) was > 100 µM and the GI50 (COLO 205 colon) was > 100 µM. For the same molecule, the TGI (COLO 205 colon) was > 100 µM.
